Measurements taken from article PMC8959960, “Inhibition of Aldose Reductase by Novel Phytocompounds: A Heuristic Approach to Treating Diabetic Retinopathy” (Evidence-based Complementary and Alternative Medicine : eCAM, 2022).
Blank lines part the entries; values can stand above or below the compound they belong to.

What was measured:
human lens ALR2 = molecular target: T1, human lens ALR2 (Homo sapiens, UniProt P15121); test: ALR2 inhibition in human lens samples (NADPH decrease at 340 nm); type: biochemical; details: crude ALR2 from diabetic human lens, DL-glyceraldehyde substrate, 37°C, pH 7.0; means ± SD, n = 3
T1 construct: Crude ALR2 enzyme extract was prepared by homogenizing from 100 mg of diabetic and nondiabetic human lenses; from tissue; host or cells: human lens (Rotary Aravind International Eye Bank)
Description: Hayman and Kinoshita method of crude ALR2 enzyme preparation was followed. Five diabetic and nondiabetic human lenses, aged 58 to 65 years, were obtained from the Rotary Aravind International Eye Bank, Aravind Eye Hospital, Madurai. […] The nondiabetic human lens was used as the control. The lens homogenate was centrifuged at 10,000 rpm for 30 minutes, and the resulting crude ALR2 enzyme preparation was used for analysis.
The 300 μl reaction mixture consisted of 100 mM sodium phosphate buffer adjusted to pH 7.0, 0.2 mM Li2SO4, 5 mM 2-mercaptoethanol, 0.15 mM NADPH, and 100 μg crude enzyme preparation, and the substrate DL-glyceraldehyde was added to initiate the reaction. ALR2 activity was assayed spectrophotometrically by measuring the decrease in the absorption of NADPH at 340 nm per unit time at 37°C and pH 7.0.
The percentage inhibition of ALR2 was calculated using the following formula:(3) % inhibition=ΔAbsorbance of sample/min−ΔAbsorbance blank/min/ΔAbsorbance of control/min−ΔAbsorbance blank/min×100.

ALR2 in ARPE-19 cells = molecular target: T2, ALR2 in ARPE-19 cells (Homo sapiens, UniProt P15121); test: Inhibition of ALR2 in ARPE-19 cells; type: cell-based; details: normoglycemic (5 mM glucose) ARPE-19 cells, 24 hr, each compound at its human lens IC50 concentration
T2 construct: The cell lysate was collected for analysis; endogenous in cells; host or cells: ARPE-19
Description: The cells were shifted to DMEM-low glucose with 10% FBS, 12 hr before the experiment. The cells were washed with PBS and incubated in FBS-free medium and 5 mM/25 mM (normoglycemic condition/hyperglycemic condition) glucose, for 24 hr, with or without the drug. Following the drug treatment, the cells were washed with ice cold PBS, trypsinized, and counted. Cells were resuspended in ALR assay buffer, homogenized for 30 seconds, and centrifuged at 10000 rpm for 30 minutes. The cell lysate was collected for analysis.
ALR2 inhibition protocol by Hayman and Kinoshita was followed.

ARPE-19 cells = test: MTT cell toxicity assay; type: cell-based, human; details: 24 hr treatment
Description: The cell toxicity of the shortlisted ARIs was assessed using MTT assay kit (in vitro toxicological assay kit, Sigma, USA). ARPE-19 cells were grown to confluence in DMEM/F12 medium with 10% FBS, harvested by trypsinization, and plated at 1 × 10^4 cells per well in a 96-well plate. The medium was replaced with serum-free medium without FBS for 3 hr before the drug treatment. Following serum starvation, ARPE-19 cells were treated with different concentrations of the identified compounds. […] The cells were treated with the lead compounds for 24 hr to determine the cytotoxicity of the compounds. After incubation, the cells were treated with 20 μl of 5 mg/ml MTT and incubated for 3 hr at 37°C to determine the cell toxicity. The viable cells converted MTT into formazan crystals which were dissolved using solubilization solution (200 μl) and measured spectrophotometrically at 570 nm with subtraction of the reference wavelength, 650 nm, to eliminate the possibility of variations in the plate and the media present, using SpectraMax M3 multiplate reader (Molecular Devices, California, USA).

ALR2 = details: high glucose condition; cited from earlier work

Structure (SMILES): COc1cc(O)c2c(=O)cc(-c3ccccc3)oc2c1OC [7-O-Methylwogonin]
- IC50 (human lens ALR2): 108 nM
- ALR2 inhibition (%) (ALR2 in ARPE-19 cells): 98%

Structure (SMILES): CC(/C=C1\SC(=S)N(CC(=O)O)C1=O)=C\c1ccccc1 [Epalrestat, reference compound]
- concentration below which no toxicity was shown (ARPE-19 cells): below 5 μM
- ALR2 inhibition (%) (ALR2 in ARPE-19 cells): 85%
- ALR2 inhibition (ALR2): 65%

Structure (SMILES): COc1cc(C(=O)O[C@H]2[C@@H]3C=CO[C@@H](O[C@@H]4O[C@H](CO)[C@@H](O)[C@H](O)[C@H]4O)[C@@H]3[C@@]3(CO)O[C@@H]23)ccc1O [Picroside II]
- IC50 (human lens ALR2): 130 nM
- ALR2 inhibition (%) (ALR2 in ARPE-19 cells): 71%

Now from value to compound, other results behind:

- IC50 (human lens ALR2): 22.4 nM
- ALR2 inhibition (%) (ALR2 in ARPE-19 cells): 100%
Structure (SMILES): O=C(OCC1=C[C@@H](O)[C@@H]2C=CO[C@@H](O[C@@H]3O[C@H](CO)[C@@H](O)[C@H](O)[C@H]3O)[C@H]12)c1ccc(O)cc1 [Agnuside]
- concentration below which no toxicity was shown (ARPE-19 cells): below 5 μM

- IC50 (human lens ALR2): 27.3 nM
- ALR2 inhibition (%) (ALR2 in ARPE-19 cells): 65%
Structure (SMILES): COc1cc2oc(-c3ccc(O)cc3)c(O[C@@H]3O[C@H](CO)[C@H](O)[C@H](O)[C@H]3O)c(=O)c2c(O)c1OC [Eupalitin-3-O-galactoside]
